The values that follow come from patent publication US8791266B2, “Thyroid hormone β receptor agonist” (Mitsubishi Tanabe Pharma Corporation, priority 2009, dated 2014).

Molecules are shown by their SMILES. pEC50: −log10 of the molar value.

Assay [1] concerns the target T1, Human Thyroid Hormone Receptor α1 (TRα1) (Homo sapiens, UniProt P10827).
T1 construct: expressed in transfected cells; host or cells: 293T cells
T1 sequence (P10827 1-410 isoform P10827-2): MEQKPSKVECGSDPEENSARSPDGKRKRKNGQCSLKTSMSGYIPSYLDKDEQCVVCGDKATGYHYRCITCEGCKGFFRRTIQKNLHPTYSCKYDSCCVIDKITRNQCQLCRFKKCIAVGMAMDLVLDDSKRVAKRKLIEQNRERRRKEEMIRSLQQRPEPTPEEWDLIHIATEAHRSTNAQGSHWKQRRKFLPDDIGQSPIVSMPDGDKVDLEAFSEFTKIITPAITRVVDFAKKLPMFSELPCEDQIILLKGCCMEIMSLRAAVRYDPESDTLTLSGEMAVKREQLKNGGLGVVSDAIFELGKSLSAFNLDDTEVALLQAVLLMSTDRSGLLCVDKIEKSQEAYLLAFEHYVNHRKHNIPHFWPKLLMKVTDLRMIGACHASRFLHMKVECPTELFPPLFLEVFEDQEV
As to the kind of experiment: Transcription activation test of human thyroid hormone receptor α1 (luciferase reporter in 293T cells). The format is cell-based. Particulars: ratio TRα/TRβ of the transcription activation EC50 values. The text has this: (§1) Transcription Activation Test of Human Thyroid Hormone Receptors α1 (TRα1) and β1 (TRβ1)
(§2) pcDNA3.1 vector (manufactured by Invitrogen) that expresses TRα1 or β1 cloned from human liver-derived cells, and firefly luciferase expression vector pDR4-LuC (manufactured by Stratagene) having a thyroid hormone response sequence to be a reporter were transfected into 293T cells cultured in Dulbecco's modified Eagle medium (DMEM) containing 10% of activated carbon/dextran-treated fetal bovine serum (FBS) by using Lipofectamine2000 (manufactured by Invitrogen). After 16 hr, the cells were plated again in a 96 well plate, and the medium was exchanged with DMEM containing 0.1% activated carbon/dextran-treated FBS. After 3 more hr, a compound diluted with dimethyl sulfoxide solution was added, and the luciferase activity after 24 hr was measured.
(§3) As a positive control, 3,3′,5-triiodo-L-thyronine (T3), which is a biological ligand, was used. The transcription activation action of the compound on TRα1 and TRβ1 was shown by each EC50 value and the maximum luciferase activity value relative to the maximum luciferase activity value of T3 as 100.

Assay [2] concerns the target T2, Human Thyroid Hormone Receptor β1 (TRβ1) (Homo sapiens, UniProt P10828).
T2 construct: expressed in transfected cells; host or cells: 293T cells
T2 sequence (P10828 1-461): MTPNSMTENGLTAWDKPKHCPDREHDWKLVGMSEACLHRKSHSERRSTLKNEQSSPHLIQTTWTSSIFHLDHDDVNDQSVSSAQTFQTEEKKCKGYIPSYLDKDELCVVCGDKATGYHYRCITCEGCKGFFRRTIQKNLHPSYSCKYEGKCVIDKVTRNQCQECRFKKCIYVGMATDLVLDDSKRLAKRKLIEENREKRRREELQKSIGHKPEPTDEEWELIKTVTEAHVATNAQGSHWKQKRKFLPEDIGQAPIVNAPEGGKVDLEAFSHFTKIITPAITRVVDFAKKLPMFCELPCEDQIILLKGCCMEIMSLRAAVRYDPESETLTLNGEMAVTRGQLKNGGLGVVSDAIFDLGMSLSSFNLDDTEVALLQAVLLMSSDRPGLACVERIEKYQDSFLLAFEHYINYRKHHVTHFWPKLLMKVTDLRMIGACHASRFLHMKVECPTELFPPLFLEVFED
In words: Transcription activation test of human thyroid hormone receptor β1 (luciferase reporter in 293T cells). Type of assay: cell-based. The following applies: EC50 of transcription activation on TRβ1, 293T cells, luciferase activity after 24 hr; read-out: TRβ.
Text: as §1, §2, §3

On to `Cc1cc(OCC(=O)O)c(C)c(C)c1Cc1cc(F)c(O)c(C2CCCCC2)n1` [Example 65, {4-[(6-cyclohexyl-4-fluoro-5-hydroxypyridin-2-yl)methyl]-2,3,5-trimethylphenoxy}acetic acid], for which the “selectivity (TRα/TRβ)” value in assay [1] was “A (5<(TRα/TRβ))”. Further, the pEC50 in assay [2] is 8.00.
Turning to `Cc1cc(OCC(=O)O)c(C)c(C)c1Cc1nc(C2CCCCC2)c(O)cc1F` [Example 73, {4-[(6-cyclohexyl-3-fluoro-5-hydroxypyridin-2-yl)methyl]-2,3,5-trimethylphenoxy}acetic acid], the “selectivity (TRα/TRβ)” value in assay [1] was “A (5<(TRα/TRβ))”. In assay [2], the pEC50 is 9.70.
The like results for `Cc1cc(OCC(=O)O)c(C)c(C)c1Cc1ccc(O)c(C(=O)N(C)CCc2ccccc2)n1` [Example 80] were, in that order, “B (2<(TRα/TRβ)<5)” and 7.00.
For the compound `Cc1cc(-c2cc(O)no2)c(C)c(C)c1Cc1ccc(O)c(C(C)C)n1` [Example 81, 6-[4-(3-hydroxyisoxazol-5-yl)-2,3,6-trimethylbenzyl]-2-isopropylpyridin-3-ol], the “selectivity (TRα/TRβ)” value in assay [1] is listed as “B (2<(TRα/TRβ)<5)”. Moreover, in assay [2], the pEC50 was 10.00.
The corresponding values for `Cc1cc(OCC(=O)O)c(C)c(C)c1Cc1ccc(O)c(C2CCCCCC2)n1` [Example 92, {4-[(6-cycloheptyl-5-hydroxypyridin-2-yl)methyl]-2,3,5-trimethylphenoxy}acetic acid] are “A (5<(TRα/TRβ))” and 9.00.
On to `COc1c(OCc2noc(=O)[nH]2)cc(C)c(Cc2ccc(O)c(C3CCCCC3)n2)c1C` [Example 107, 3-({4-[(6-cyclohexyl-5-hydroxypyridin-2-yl)methyl]-2-methoxy-3,5-dimethylphenoxy}methyl)-1,2,4-oxadiazol-5(4H)-one], for which the “selectivity (TRα/TRβ)” value in assay [1] is “C (2>(TRα/TRβ))”. The pEC50 in assay [2] is 8.00.
As to `Cc1cc(OCc2noc(=O)[nH]2)c2c(c1Cc1ccc(O)c(C3CCCCC3)n1)CCO2` [Example 117, 3-[({4-[(6-cyclohexyl-5-hydroxypyridin-2-yl)methyl]-5-methyl-2,3-dihydro-1-benzofuran-7-yl}oxy)methyl]-1,2,4-oxadiazol-5(4H)-one], the “selectivity (TRα/TRβ)” value in assay [1] was “B (2<(TRα/TRβ)<5)”. Also, the pEC50 in assay [2] is 8.70.
On to `Cc1cc(OCc2noc(=O)[nH]2)c(F)c(C)c1Cc1ccc(O)c(N2CCCCC2)n1` [Example 118, 3-({2-fluoro-4-[(5-hydroxy-6-piperidin-1-ylpyridin-2-yl)methyl]-3,5-dimethylphenoxy}methyl)-1,2,4-oxadiazol-5(4H)-one], for which the “selectivity (TRα/TRβ)” value in assay [1] is recorded as “B (2<(TRα/TRβ)<5)”. The pEC50 in assay [2] is 7.70.
With `Cc1cc(NC(=O)CC(=O)O)c(F)c(C)c1Cc1ccc(O)c(C2CCCCCC2)n1` [Example 131, 3-({4-[(6-cycloheptyl-5-hydroxypyridin-2-yl)methyl]-2-fluoro-3,5-dimethylphenyl}amino)-3-oxopropanoic acid], the “selectivity (TRα/TRβ)” value in assay [1] is “A (5<(TRα/TRβ))”. Moreover, the pEC50 in assay [2] is 8.40.
The corresponding values for `Cc1cc(CC(F)C(=O)O)c(C)c(C)c1Cc1ccc(O)c(C2CCCCC2)n1` (stereo not shown) [Example 136, 3-{4-[(6-cyclohexyl-5-hydroxypyridin-2-yl)methyl]-2,3,5-trimethylphenyl}-2-fluoropropanoic acid] are “C (2>(TRα/TRβ))” and 9.00.
Turning to `Cc1cc(OCC(=O)O)c2c(c1Cc1ccc(O)c(C3CCCCC3)n1)CCC2` [Example 152, ({7-[(6-cyclohexyl-5-hydroxypyridin-2-yl)methyl]-6-methyl-2,3-dihydro-1H-inden-4-yl}oxy)acetic acid], the “selectivity (TRα/TRβ)” value in assay [1] is on record as “B (2<(TRα/TRβ)<5)”. Also, the pEC50 in assay [2] is 8.30.
In the case of `Cc1cc(OCC(=O)O)c(C)c(C)c1Cc1ccc(O)c(-c2cccc(F)c2)n1` [Example 171, {4-[6-(3-fluoro-phenyl)-5-hydroxy-pyridin-2-ylmethyl]-2,3,5-trimethyl-phenoxy}acetic acid], in assay [1], the “selectivity (TRα/TRβ)” value was “A (5<(TRα/TRβ))”. Besides, in assay [2], the pEC50 is 8.70.
For the compound `Cc1cc(OCC(=O)O)c(C)c(C)c1Cc1ccc(O)c(-c2cccc(Cl)c2)n1` [Example 173, (4-{[6-(3-chlorophenyl)-5-hydroxypyridin-2-yl]methyl}-2,3,5-trimethylphenoxy)acetic acid], the “selectivity (TRα/TRβ)” value in assay [1] is on record as “A (5<(TRα/TRβ))”. The pEC50 in assay [2] was 9.40.
As to `Cc1cc(OCc2noc(=O)[nH]2)c(F)c(C)c1Cc1ccc(O)c(-c2ccc(F)c(F)c2F)n1` [Example 191, 3-{2-fluoro-4-[5-hydroxy-6-(2,3,4-trifluoro-phenyl)-pyridin-2-ylmethyl]-3,5-dimethyl-phenoxymethyl}-1,2,4-oxadiazol-5(4H)-one], the “selectivity (TRα/TRβ)” value in assay [1] is given as “A (5<(TRα/TRβ))”. Also, the pEC50 in assay [2] was 8.22.
Regarding `Cc1cc(OCc2noc(=O)[nH]2)c(F)c(C)c1Cc1ccc(O)c(-c2cccc(N3CCCC3)c2)n1` [Example 206, 3-[(2-fluoro-4-{[5-hydroxy-6-(3-pyrrolidin-1-ylphenyl)pyridin-2-yl]methyl}-3,5-dimethylphenoxy)methyl]-1,2,4-oxadiazol-5(4H)-one], the “selectivity (TRα/TRβ)” value in assay [1] is “A (5<(TRα/TRβ))”. The pEC50 in assay [2] was 8.52.
Turning to `Cc1cc(-n2nc(C#N)c(=O)[nH]c2=O)cc(C)c1Cc1ccc(O)c(-c2ccccc2)n1` [Example 216, 2-{4-[(5-hydroxy-6-phenylpyridin-2-yl)methyl]-3,5-dimethylphenyl}-3,5-dioxo-2,3,4,5-tetrahydro-1,2,4-triazine-6-carbonitrile], the “selectivity (TRα/TRβ)” value in assay [1] is “A (5<(TRα/TRβ))”. For the same compound, the pEC50 in assay [2] was 8.40.
For the compound `CCCOc1cccc(-c2nc(Cc3c(C)cc(OCc4noc(=O)[nH]4)c(F)c3C)ccc2O)c1` [Example 236, 3-{2-fluoro-4-[5-hydroxy-6-(3-propoxy-phenyl)-pyridin-2-ylmethyl]-3,5-dimethyl-phenoxymethyl}-1,2,4-oxadiazol-5(4H)-one], the “selectivity (TRα/TRβ)” value in assay [1] was “A (5<(TRα/TRβ))”. Further, the pEC50 in assay [2] was 8.52.
As to `O=C(O)COc1cc(Br)c(Cc2ccc(O)c(-c3ccccc3)n2)c(Br)c1F` [Example 256, [3,5-dibromo-2-fluoro-4-(5-hydroxy-6-phenyl-pyridin-2-ylmethyl)-phenoxy]acetic acid], the “selectivity (TRα/TRβ)” value in assay [1] was “A (5<(TRα/TRβ))”. Further, the pEC50 in assay [2] is 8.52.
Consider `COCC1(c2nc(Cc3c(C)cc(OCc4noc(=O)[nH]4)c(F)c3C)ccc2O)CCCCC1` [Example 268, 3-{[2-fluoro-4-({5-hydroxy-6-[1-(methoxymethyl)cyclohexyl]pyridin-2-yl}methyl)-3,5-dimethylphenoxy]methyl}-1,2,4-oxadiazol-5(4H)-one], for which, in assay [1], the “selectivity (TRα/TRβ)” value is reported as “B (2<(TRα/TRβ)<5)”. Besides, in assay [2], the pEC50 was 9.00.
As for `CCc1cc(OCC(=O)O)c(C)c(C)c1Cc1ccc(O)c(-c2cccc(F)c2)n1` [Example 269, (5-ethyl-4-{[6-(3-fluorophenyl)-5-hydroxypyridin-2-yl]methyl}-2,3-dimethylphenoxy)acetic acid], the “selectivity (TRα/TRβ)” value in assay [1] is on record as “A (5<(TRα/TRβ))”. Also, the pEC50 in assay [2] was 9.15.
